Source: PubChem BioAssay AID720589 (Broad Institute, 2013)

What follows are compounds tested on HepG2 viability, ATP luminescence (CellTiter-Glo), 72 h (assay: ATP-based viability loss in HepG2 cells – cell-based, CellTiter-Glo luminescence, cherry-pick, set 3, cytotoxicity control, dose response (AID 720589)).

Q: How did the AC35 turn out when `COC1C(O)C(C)OC(OC2C(Oc3cccc4c(O)c5c(=O)oc6ccc(C)c7c(=O)oc(c34)c5c67)OC(C)C(O)C2O)C1O` (stereo not given) was run?
A: 14.3 µM

Q: For `CN(C)CC1CCC/C(=C\c2ccc(OC(=O)c3ccc(Cl)cc3)cc2)C1=O` (stereo not given), which AC35 is on record?
A: 9.84 µM

Q: For `C[C@H]1CN([C@@H](C)CO)C(=O)c2cccc(NC(=O)c3ccc(-c4nccs4)cc3)c2O[C@@H]1CN(C)Cc1ccc(C(=O)Nc2ccccc2N)cc1`, which AC35 is on record?
A: 4.1 µM

Q: For `C[C@@H]1CN([C@@H](C)CO)C(=O)c2cc(NS(=O)(=O)c3ccc(Cl)cc3)ccc2O[C@@H]1CN(C)Cc1ccc(C(=O)Nc2ccccc2N)cc1`, which AC35 is on record?
A: 9.68 µM

Q: Which AC35 does the source give for `CC1(C(=O)NCc2ccco2)Cc2c(-c3cccc(C(N)=O)c3)ccnc2O1` (stereo not given) here?
A: 14.5 µM

Q: How did the AC35 turn out when `CC(=NNc1ccc2ccccc2n1)c1ccccn1` was run?
A: 1.53 µM

Q: How did the AC35 turn out when `Cc1cc(C)cc(N2C(=O)NC(=O)/C(=C\C=C\c3ccco3)C2=O)c1` was run?
A: 7.27 µM

Q: With `COc1ccccc1C(CCNCc1ccc(N(C)C)cc1)c1ccc(OC(C)C)cc1` (stereo not given) as the compound, how does the AC35 read?
A: 4.74 µM

Q: For `C[C@@H]1CN([C@@H](C)CO)C(=O)c2cccc(NS(=O)(=O)c3ccc(Cl)cc3)c2O[C@@H]1CN(C)Cc1ccc(C(=O)Nc2ccccc2N)cc1`, which AC35 is on record?
A: 2.38 µM

Q: Which AC35 does the source give for `C=C(C(=O)c1ccccc1)C(C)C(=C)C(=O)c1ccccc1` here?
A: 10.2 µM

Q: Which AC35 does the source give for `Cc1nc(N)nc(N)c1-c1ccc(Cl)c(Cl)c1` here?
A: 0.557 µM

Q: For `C=C1C(=O)OC2C1CCC(C)C1C=CC(=O)C12C` (stereo not given), which AC35 is on record?
A: 9.29 µM

Q: With `O=c1cc(CN2CCN(Cc3ccccc3)CC2)c2ccc(O)c(O)c2o1` as the compound, how does the AC35 read?
A: 10.3 µM

Q: For `C[C@@H]1O[C@@H](O[C@H]2C[C@@H](O)[C@]3(CO)[C@H]4[C@H](O)C[C@]5(C)[C@@H](C6COC(=O)C6)CC[C@]5(O)[C@@H]4CC[C@]3(O)C2)[C@H](O)[C@H](O)[C@H]1O` (stereo not given in full), which AC35 is on record?
A: 2.62 µM

Q: With `O=C1NC(=O)N(Cc2ccc(F)cc2)C(=O)/C1=C\C=C\c1ccco1` as the compound, how does the AC35 read?
A: 9.05 µM

Q: Which AC35 does the source give for `C[C@]12CC[C@H](O)C[C@H]1CC[C@@H]1[C@@H]2C[C@@H](O)[C@]2(C)[C@@H](C3=CC(=O)OC3)CC[C@]12O` here?
A: 0.373 µM

Q: Which AC35 does the source give for `C[C@@H]1CN([C@H](C)CO)C(=O)c2cc(C#CCN(C)C)cnc2O[C@H]1CN(C)Cc1ccc(-c2ccccc2)cc1` here?
A: 2.79 µM

Q: Which AC35 does the source give for `C[C@H](CO)N1C[C@H](C)[C@H](CN(C)Cc2ccc(C(=O)Nc3ccccc3N)cc2)Oc2ccc(NC(=O)C3CC3)cc2CC1=O` here?
A: 0.74 µM

Q: Which AC35 does the source give for `Cc1ccc(S(=O)(=O)Nc2ccc3c(c2)C(=O)N([C@@H](C)CO)C[C@@H](C)[C@@H](CN(C)Cc2ccc(C(=O)Nc4ccccc4N)cc2)O3)cc1` here?
A: 6.33 µM

Q: `COc1cccc(-c2cc(NC=O)c3ncc(-c4ccc(C(C)=O)cc4)n3c2)c1` was tested. Which AC35 did it give?
A: 15.5 µM

Q: How did the AC35 turn out when `C[C@H](CO)N1C[C@H](C)[C@H](CN(C)CC2CCCCC2)Oc2ccc(NC(=O)CCCCCC(=O)Nc3ccccc3N)cc2CC1=O` was run?
A: 0.219 µM

Q: How did the AC35 turn out when `CC12CCC3C(CCC4(O)CC(O)CCC34C=NO)C1(O)CCC2C1=COC(=O)C1` (stereo not given) was run?
A: 0.155 µM

Q: `Nc1ccc(-c2cc3ccccc3c(=O)o2)cc1` was tested. Which AC35 did it give?
A: 0.05 µM

Q: With `Cc1ccc(S(=O)(=O)Nc2ccc3c(c2)C(=O)N([C@@H](C)CO)C[C@@H](C)[C@H](CN(C)Cc2ccc(C(F)(F)F)cc2)OCCCC[C@H](C)O3)cc1` as the compound, how does the AC35 read?
A: 13.3 µM

Q: With `Nc1nc(N)c2cc(Sc3ccc4ccccc4c3)ccc2n1` as the compound, how does the AC35 read?
A: 3.74 µM

Q: With `C=C1C(=O)[C@@]23[C@H](O)C[C@@H]4C(C)(C)CC[C@H](O)[C@@]4(C)[C@@H]2CC[C@@H]1[C@H]3O` as the compound, how does the AC35 read?
A: 15.3 µM

Q: How did the AC35 turn out when `C[C@H]1CN([C@@H](C)CO)C(=O)Cc2cc(NC(=O)CCC(F)(F)F)ccc2O[C@H]1CN(C)Cc1ccc(C(=O)Nc2ccccc2N)cc1` was run?
A: 2.13 µM

Q: Which AC35 does the source give for `CCc1ccc(/C=C2\SC(=S)N(CCCC(=O)N3CCN(C)CC3)C2=O)cc1` here?
A: 8.6 µM

Q: For `COc1ccc(NC(=S)N=Nc2c(O)[nH]c3ccccc23)cc1`, which AC35 is on record?
A: 15.8 µM

Q: Which AC35 does the source give for `COc1cc2c(OC(C)=O)c3c(c(-c4ccc5c(c4)OCO5)c2cc1OC)C(=O)OC3` here?
A: 0.465 µM

Q: How did the AC35 turn out when `CC(=O)Nc1ccc(S(=O)(=O)Nc2ccc(N3CCCCC3)cc2)cc1` was run?
A: 19.2 µM

Q: Which AC35 does the source give for `Cc1ccc(/C=C2\SC(=S)N(CCCC(=O)NNC(=O)c3ccccc3O)C2=O)cc1` here?
A: 16.9 µM

Q: With `C=CCOC(=O)c1sc(NC(=O)c2ccc(OC)cc2)nc1C` as the compound, how does the AC35 read?
A: 6.33 µM

Q: Which AC35 does the source give for `O=C1NC(=O)N(Cc2ccco2)C(=O)/C1=C/C=C/c1ccco1` here?
A: 10.3 µM

Q: How did the AC35 turn out when `Nc1ccc(-c2cc3ccccc3oc2=O)cc1` was run?
A: 2.42 µM

Q: Which AC35 does the source give for `CC[C@@H]1C[C@H]2CC[C@H](O2)[C@H](C)C(=O)O[C@@H](C)C[C@@H]2CC[C@@H](O2)[C@@H](C)C(=O)O[C@H](C)C[C@H]2CC[C@H](O2)[C@H](C)C(=O)O[C@@H](C)C[C@@H]2CC[C@@H](O2)[C@@H](C)C(=O)O1` here?
A: 0.506 µM

Q: Which AC35 does the source give for `C[C@@H]1CN([C@@H](C)CO)C(=O)c2cccc(NS(=O)(=O)c3ccccc3)c2O[C@@H]1CN(C)Cc1ccc(C(=O)Nc2ccccc2N)cc1` here?
A: 2.11 µM

Q: Which AC35 does the source give for `N=c1ccn2c(n1)O[C@H]1[C@H](O)[C@@H](CO)O[C@H]12` here?
A: 1.37 µM

Q: Which AC35 does the source give for `OC[C@H]1[C@@H](c2ccc(C#CC3CCCC3)cc2)[C@@H]2CN(CCC(F)(F)F)CCCCN12` here?
A: 9.23 µM

Q: For `Cc1cccc(/C=C(\c2nc3ccccc3[nH]2)S(=O)(=O)c2ccccc2)c1`, which AC35 is on record?
A: 10.7 µM

Q: How did the AC35 turn out when `O=C(NC[C@@H]1N[C@@H](CO)[C@H]1c1ccc(C2=CCCCC2)cc1)c1cccc(F)c1` was run?
A: 7.71 µM

Q: For `COc1ccccc1-c1ccc(OCCCN2CCC(C(O)(c3ccccc3)c3ccccc3)CC2)cc1`, which AC35 is on record?
A: 7.47 µM

Q: With `C[C@@H]1CN([C@H](C)CO)C(=O)c2cc(NC(=O)c3ccccc3)ccc2O[C@@H](C)CCCCO[C@H]1CN(C)C(=O)Nc1cccc2ccccc12` as the compound, how does the AC35 read?
A: 1.54 µM

Q: Which AC35 does the source give for `N#CC(C#N)=C1C=CC=CN1/C(=C\c1ccco1)C(=O)c1ccc(Cl)cc1` here?
A: 11.2 µM

Q: For `C[C@]12CC[C@H]3[C@@H](CC[C@]4(O)C[C@@H](O)CC[C@]34C=O)[C@@]1(O)CC[C@@H]2C1=CC(=O)OC1`, which AC35 is on record?
A: 0.93 µM

Q: How did the AC35 turn out when `COc1ccc(Nc2ncnc3ccc(Br)cc23)c(OC)c1` was run?
A: 15.6 µM

Q: How did the AC35 turn out when `Cc1ccc(C(C)C)c(OCc2ccc(C(=O)N/N=C/c3ccc(O)cc3O)cc2)c1` was run?
A: 4.24 µM

Q: For `O=c1ccc2[n+]([O-])c3ccc(O)cc3oc-2c1`, which AC35 is on record?
A: 5.65 µM

Q: With `O=C(Nc1ccc(F)cc1)N1CCCCN2[C@@H](CO)[C@H](c3ccc(C4=CCCCC4)cc3)[C@@H]2C1` as the compound, how does the AC35 read?
A: 8.45 µM

Q: For `Cc1cc2sc3ccc(C#CC4(O)CCCCC4)cc3c(=O)c2cc1C`, which AC35 is on record?
A: 21.6 µM

Q: With `c1ccc(Nc2nnc(-c3ccc4c(c3)OCO4)o2)cc1` as the compound, how does the AC35 read?
A: 14.3 µM

Q: Which AC35 does the source give for `CC(=O)OC1CC(OC2C(O)CC(OC3C(O)CC(OC4CCC5(C)C(CCC6C5CCC5(C)C(C7=CC(=O)OC7)C(O)CC65O)C4)OC3C)OC2C)OC(C)C1OC1OC(CO)C(O)C(O)C1O` (stereo not given) here?
A: 0.475 µM

Q: For `CCCCNC1=CC(=O)C(=O)c2ccccc21`, which AC35 is on record?
A: 7.32 µM

Q: `C[C@@H]1CN([C@@H](C)CO)C(=O)c2cccc(NC(=O)CCCCCC(=O)Nc3ccccc3N)c2O[C@@H]1CN(C)Cc1ccc(Oc2ccccc2)cc1` was tested. Which AC35 did it give?
A: 0.458 µM

Q: For `C[C@@H]1CN([C@@H](C)CO)C(=O)c2cc(NS(=O)(=O)c3ccc(F)cc3)ccc2O[C@@H]1CN(C)Cc1ccc(C(=O)Nc2ccccc2N)cc1`, which AC35 is on record?
A: 0.354 µM

Q: For `O=C(Nc1ccc(Br)cc1)c1ccc(F)c(S(=O)(=O)N2CCN(c3ccccn3)CC2)c1`, which AC35 is on record?
A: 2.69 µM

Q: For `CC(C)c1oc(=O)cc2c1[C@@H](O)[C@H]1OC(=O)[C@@]3(C)CC[C@@H](O)[C@@]2(C)C13` (stereo not given in full), which AC35 is on record?
A: 19.7 µM

Q: `C[C@H]1CN([C@@H](C)CO)C(=O)c2cc(N(C)C)ccc2O[C@@H]1CN(C)Cc1ccc(C(=O)Nc2ccccc2N)cc1` was tested. Which AC35 did it give?
A: 0.975 µM

Q: For `COC(=O)c1ccccc1-c1c2ccc(=N)cc-2oc2cc(N)ccc12`, which AC35 is on record?
A: 10.2 µM

Q: How did the AC35 turn out when `COc1ccc(/C=C/C(=O)c2ccc(C(=O)/C=C/c3ccc(OC)c(OC)c3)cc2)cc1OC` was run?
A: 15.1 µM
